Assay results taken from PubChem BioAssay (NCI).
Several values for one entry are separate records, joined by “and”; a condition that tells them apart may be missing. Equal values may be shown once.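 Exposure lasted 48 hours, with cells grown in 96-well plates and compounds tested at five concentrations. Abbreviation: GI50, concentration required for 50% inhibition of growth. TGI is the concentration that stops growth completely.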

Columns and labels:
Assay in all cases: growth of human tumour cells (NCI), 48 h
OVCAR-3 ovarian = test system: OVCAR-3 ovarian
SK-MEL-28 melanoma = test system: SK-MEL-28 melanoma
TK-10 renal = test system: TK-10 renal
U251 CNS = test system: U251 CNS
UO-31 renal = test system: UO-31 renal
HOP-18 NSCLC = test system: HOP-18 NSCLC
DLD-1 colon = test system: DLD-1 colon
HT29 colon = test system: HT29 colon
XF 498 CNS = test system: XF 498 CNS
NCI-H226 lung = test system: NCI-H226 lung
MCF7 breast = test system: MCF7 breast

Structure (SMILES)	TGI (OVCAR-3 ovarian) [µM]	TGI (SK-MEL-28 melanoma) [µM]	TGI (TK-10 renal) [µM]	TGI (U251 CNS) [µM]	TGI (UO-31 renal) [µM]	TGI (HOP-18 NSCLC) [µM]	TGI (DLD-1 colon) [µM]	TGI (HT29 colon) [µM]	TGI (XF 498 CNS) [µM]	GI50 (OVCAR-3 ovarian) [µM]	GI50 (NCI-H226 lung) [µM]	TGI (NCI-H226 lung) [µM]	GI50 (UO-31 renal)	GI50 (SK-MEL-28 melanoma) [µM]	GI50 (TK-10 renal) [µM]	GI50 (U251 CNS) [µM]	GI50 (DLD-1 colon) [µM]	GI50 (HT29 colon) [µM]	TGI (MCF7 breast) [µM]	GI50 (MCF7 breast) [µM]
COC(=O)C1=C(C(=O)OC)C2C=CC1C1C(Cl)=C(Cl)C21 (stereo not given)	> 100	> 100	> 100	> 100	> 100	> 100	> 100	> 100												
O=C1OCc2c1cc1ccc(O)c(OC3OC(CO)C(O)C(O)C3O)c1c2-c1ccc2c(c1)OCO2 (stereo not given)	> 100	> 100	> 100	> 100	> 100			> 100	> 100	64.6	48.4	> 100	27.2 µM							
OCCC1(O)CCC(O)CC1 (stereo not given)	> 100	> 100	> 100	> 100	> 100	> 100	> 100	> 100				> 100								
CC(C)CC(=O)[O-].CC(C)CC(=O)[O-].N.N.N.N.[Co+3].[O-][Cl+3]([O-])([O-])[O-]	> 100	> 100	> 100	> 100	> 100		> 100	> 100		> 100			84.7 µM and > 100 µM	> 100	> 100	> 100	> 100	> 100		
CCCCCCCCCCCCCC(=O)OC1CC(=O)OC1CO (stereo not given)	> 100		> 100	> 100	92.6	92.3	> 100	> 100	> 100											
Clc1ccc(C2N3CCCCC3[C@@H]3c4[nH]c5ccccc5c4CCN23)cc1 (stereo not given in full)	> 100	> 100	> 100	> 100	> 100	> 100	> 100	49.9	> 100											
CC12CC[C@@H](C(C)(C)O)C1[C@@H](O)CC1(C)C2CCC2[C@@]3(C)CC[C@H](O)C(C)(C)C3C(O)C[C@]21C (stereo not given in full)	35.3	40.2	35.6	40	40	41.1	53.3	31.1												
CCCCNC1=C(C(=O)OCC)C(=O)CO1	> 100	> 100	> 100	> 100	> 100	> 100	> 100	> 100	> 100			> 100								
CCOc1ccc2c(c1)[n+]([O-])c(S(=O)(=O)c1ccc(C)cc1)c(N)[n+]2[O-]	> 100	> 100	> 100	> 100	> 100	> 100	> 100	> 100				> 100								
CC(=O)Nc1ccccc1Sc1ccccc1	> 100	> 100	> 100	> 100	> 100	> 100		> 100	> 100			> 100								
COc1ccccc1C1C(C(=O)Nc2ccccc2)=C(C)NC(C)=C1C(=O)Nc1ccccc1	> 100	> 100	> 100	> 100	> 100	> 100		> 100	> 100			> 100								
CCCCCCCCCC[C@@H](O)[C@@H]1CC[C@H]([C@H]2CC[C@@H]([C@@H](O)CCCCCCCCCC[C@H]3CC(CC(C)=O)C(=O)O3)O2)O1 (stereo not given in full)	17.8	24.4	32.8	43.8	16.5		83	34.6				20.2								
Cc1cc2c(cc1C)[n+](=O)c(C(=O)CC(=O)C(=O)Nc1c(C(C)C)cccc1C(C)C)c(C)n2[O-]	> 100	> 100	> 100	> 100	> 100	> 100		> 100	> 100			> 100								
Cc1ccc(S(=O)(=O)C(CC(=O)N2CCCC2)C(=O)c2ccccc2)cc1 (stereo not given)	> 100	> 100	> 100	> 100	> 100	> 100	> 100	> 100	> 100											
O=C1CNCCCN2CCN(CCCNCC(=O)Nc3ccc(cc3)S(=O)(=O)c3ccc(cc3)NC(=O)CNCCCN3CCN(CCCNCC(=O)Nc4ccc(cc4)S(=O)(=O)c4ccc(cc4)N1)CC3)CC2	> 89.4	> 56.8	56.5	> 61.8	> 100			> 67.5				> 73.6							> 100	
CC1CCC2(C(=O)O)CCC3(C)C(=CCC4C5(C)CC(O)C(O)C(C)(CO)C5C(O)CC43C)C2C1C (stereo not given)	50.8	69	> 100	45.5	> 100			> 100				> 100							> 100	
N#CSCC1CC(O)(c2ccccc2)C(c2ccccc2)C(c2ccc(Cl)cc2)O1 (stereo not given)	2.29	4.5	4.2	3.12	2.68			2.45		0.782	2.27	4.62	1.33 µM	1.97	2.01	1.58		1.02	3.21	1.27
O=c1oc2ccc(F)cc2c(=O)n1-c1ccc(F)cc1F	27.7	11.7	36.9	38.8	6.56			49.8		3.26	2.82	72.9	1.93 µM	2.79	5.07	3.26		3.91	> 100	2.87
N#Cc1ccc(C#Cc2ccccc2C#CCCCCO)cc1	39.6	53.7	33.5	27.5	35.3			> 100		19.9	20.9	38.6	16.9 µM	25.6	16.5	14.5		46	45.6	22.1
O=C(O)CCCCC(CCSCc1ccccc1)SCc1ccccc1 (stereo not given)	> 69.9	> 100	> 100	> 100	> 100			> 100		37.9	> 71	> 100	30.9 µM	45.1	> 73.4	47.9		65.3	> 100	58.8
